In patent publication US12472208B2 (priority 2013, dated 2025):

Tests used:
[1] = system: cold, flu, or other respiratory illness; conditions: in vivo
[2] = system: illness spreading through the player population; conditions: over 300 players, 2014 training period, about 4 hours per day, PHPG about 0.3 ppm; historically two to five players miss three to four days per week
[3] = system: bronchitis, colds, or flu; conditions: in vivo
DNA = conditions: cited from earlier work

Structure (SMILES) | subjects contracting cold, flu, or other respiratory illness [1] | players missing training days due to illness during spring training [2] | occurrence of bronchitis, colds, or flu [3] | adverse effects of exposure (subject; continuous exposure) | toxicity (subject; levels up to 7 ppm) | mutagenicity / safety (DNA)
OO [PHPG, hydrogen peroxide] | none of the subjects contracted cold, flu, or other respiratory illness | only one player missed one training day due to illness | did not suffer bronchitis, colds, or flu | no adverse effects | non-toxic | 
N#CSO [OSCN−, hypothiocyanate] |  |  |  |  |  | non-mutagenic
